Source: patent US10087171B2, “Crystalline forms of cadazolid” (ACTELION PHARMACEUTICALS LTD, priority 2016, dated 2018)

Assays:
Type in all cases: physicochemical
[1] = Gravimetric water vapor sorption analysis GVS1 at 25° C.; conditions: for hysteresis in GVS: 0% to 95% r.h.
Description: GVS1: Projekt Messtechnik SPS 11-100n water vapor sorption analyzer. The samples are placed in aluminum crucibles on top of a microbalance. They are equilibrated at 25° C. and 50% r.h. and are then subjected to a pre-defined humidity program at 25° C. in the order 50-0-95-50% r.h. A scanning rate of r.h.=5%/h is used and ‘isohumid’ equilibration periods are included at the extreme values.

[2] = Relative thermodynamic stability deduced from melting points and melting enthalpies; conditions: at room temperature
Description: DSC data are collected on a Perkin Elmer DSC 7. The instrument is calibrated for energy and temperature using certified indium. Samples are sealed in hermetically closed gold crucibles under N2, heating rates of 10° C./min or 100° C./min, scan from −50° C. to variable end temperatures. Peak temperatures are reported for melting points.
The relative thermodynamic stability of polymorphic forms can be deduced from their melting points and melting enthalpies (L. Yu, Journal of Pharmaceutical Sciences 84 (1995) 966-974). These values are summarized in the Table 6 below for form A and C of cadazolid: […]

[3] = Suspension equilibration experiments
Description: 27 mg of cadazolid in form A and 25 mg of cadazolid in form C (obtainable as described in Example 3) are suspended in 1 mL H2O, treated for 5 min in an ultrasound bath and agitated at 25° C. The solid is filtered off after 5 days and analyzed. The obtained material is cadazolid in form B.
The following suspension equilibration experiments are performed in organic solvent (mixture of methanol and dichloromethane) and in water:
26 mg of cadazolid in form A and 25 mg of cadazolid in form C are suspended in 1 mL MeOH/CH2Cl21:3 and agitated at 25° C. The solid is filtered off after 5 days and is cadazolid in form A.
27 mg of cadazolid in form A and 26 mg of cadazolid in form C are suspended in 1 mL MeOH/CH2Cl2 1:3 and agitated at 5° C. for 2 days. Some solid is isolated by drying on a filter paper and consists of cadazolid in form A.
29 mg of cadazolid in form A and 26 mg of cadazolid in form C are suspended in 1 mL H2O, treated for 5 min in an ultrasound bath and agitated at 5° C. for 2 days. Some solid is isolated by drying on filter paper and consists of cadazolid in form B.

[4] = Gravimetric water vapor sorption analysis GVS2 at 25° C.
Excerpt: GVS2: Surface Measurement Systems Ltd. DVS-1 water vapor sorption analyzer. The sample is placed in a Pt pan suspended on a micro balance and is exposed to a N2 flow with 95% r.h. at the beginning and then decreasing with a constant rate of 5%/h.

[5] = MeOH/CH2Cl2 1:3, 25° C., 5 days

Row | maximum difference in water content between 0% and 95% r.h. [1] | hysteresis in GVS [1] | water content of the solid at 40% r.h. [1] | water content of the solid at 95% r.h. [1] | relative thermodynamic stability of polymorphic forms A and C [2] | solid form obtained after suspension equilibration of form A and form C together ([3]; H2O, 5° C., 2 days) | solid form obtained after suspension equilibration of form A and form C together ([3]; H2O, 25° C., 5 days) | solid form obtained after suspension equilibration of form A and form C together ([3]; MeOH/CH2Cl2 1:3, 5° C., 2 days) | solid form obtained after suspension equilibration of form A and form C together [3, 5] | solid form after GVS (post GVS XRPD) [1] | weight increase between 0% and 95% r.h. [1] | weight increase between 0% and 95% r.h. as equivalents H2O [1] | hygroscopicity classification ([1]; 40% to 95% r.h., adapted methodology, classification according to Pharm. Eur 8.0, section 5.11) | Compound | relative thermodynamic stability concluded from suspension equilibration and GVS2 data ([3]; at 25° C., both at low and high relative humidity) | continuous weight loss during 6 h equilibration at 95% r.h. [4] | r.h. at which the water content of form A is reached ([4]; decreasing r.h.) | additional, accelerated weight loss upon lowering the r.h. ([4]; r.h. lowered at a rate of 5%/h)
1 | ~0.5 mol/mol | No hysteresis | 0.81% | 1.81% | more thermodynamically stable form | form B | form B | form A | form A |  |  |  |  | O=C(O)c1cn(C2CC2)c2cc(N3CCC(O)(COc4ccc(N5C[C@H](CO)OC5=O)cc4F)CC3)c(F)cc2c1=O [crystalline form A, 1-cyclopropyl-6-fluoro-7-{4-[2-fluoro-4-((R)-5-hydroxymethyl-2-oxo-oxazolidin-3-yl)-phenoxymethyl]-4-hydroxy-piperidin-1-yl}-4-oxo-1,4-dihydro-quinoline-3-carboxylic acid] | thermodynamically more stable than form C |  |  | 
2 |  |  | 0.33% | 2.52% |  | form B | form B | form A | form A |  |  |  |  | O=C(O)c1cn(C2CC2)c2cc(N3CCC(O)(COc4ccc(N5C[C@H](CO)OC5=O)cc4F)CC3)c(F)cc2c1=O [crystalline form C, 1-cyclopropyl-6-fluoro-7-{4-[2-fluoro-4-((R)-5-hydroxymethyl-2-oxo-oxazolidin-3-yl)-phenoxymethyl]-4-hydroxy-piperidin-1-yl}-4-oxo-1,4-dihydro-quinoline-3-carboxylic acid] |  |  |  | 
3 |  | 95% r.h. with a significant hysteresis | 1.8% | 7.17% |  |  |  |  |  | amorphous as tested by a post GVS | A weight increase of about 7% (circa | 2.3 equivalents H2O) between 0% and | considered as being hygroscopic (adapted | O=C(O)c1cn(C2CC2)c2cc(N3CCC(O)(COc4ccc(N5C[C@H](CO)OC5=O)cc4F)CC3)c(F)cc2c1=O [amorphous state, 1-cyclopropyl-6-fluoro-7-{4-[2-fluoro-4-((R)-5-hydroxymethyl-2-oxo-oxazolidin-3-yl)-phenoxymethyl]-4-hydroxy-piperidin-1-yl}-4-oxo-1,4-dihydro-quinoline-3-carboxylic acid] |  |  |  | 
4 |  |  |  |  |  |  |  |  |  |  |  |  |  | O=C(O)c1cn(C2CC2)c2cc(N3CCC(O)(COc4ccc(N5C[C@H](CO)OC5=O)cc4F)CC3)c(F)cc2c1=O [crystalline form B, 1-cyclopropyl-6-fluoro-7-{4-[2-fluoro-4-((R)-5-hydroxymethyl-2-oxo-oxazolidin-3-yl)-phenoxymethyl]-4-hydroxy-piperidin-1-yl}-4-oxo-1,4-dihydro-quinoline-3-carboxylic acid] |  | 30% during 6 h equilibration at 95% r.h. is | the r.h. at a rate of 5%/h. At 80% r.h., the water | loss of approx. 15% is observed upon lowering
